Among the test systems are NCI-H522; Malme-3M; CCRF-CEM; NCI/ADR-RES; SF-539; A498; T47D; SNB-75; SN12C; NCI-H460; TK-10; NCI-H23; OVCAR-4; MCF7; BT-549; OVCAR-5; HL-60; HCC 2998; MOLT-4; 786-0.
Assay in all cases: inhibition of tumour cell growth, NCI panel, 48 h

Molecules are shown by their SMILES.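 Where inhibition never reached the appropriate level, the endpoint shown equals the highest concentration tested. Otherwise, values were interpolated linearly from a five-concentration, 48-hour dose response in 96-well plates. The concentration for 50% growth inhibition is given as GI50.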 Calls of active or inactive are those of the source. No stated cut-off is given here; in the data, active = GI50 up to about 1.1 µM and inactive = higher. Bounds are passed on as bounds.

In the case of `COc1ccc(Nc2nc3cc(C(F)(F)F)ccc3nc2C(=O)O)cc1OC`, the GI50 in the test with NCI-H522 is 30.4 µM (inactive); in the test on Malme-3M it was 42.9 µM (inactive); with CCRF-CEM, 16.2 µM (inactive); in the test with NCI/ADR-RES, 30.8 µM (inactive); in the test with SF-539, 23.3 µM (inactive); in the test on A498 it was 30.7 µM (inactive). The GI50 with T47D is 27.7 µM (inactive); in the test on SNB-75, 62.7 µM (inactive); with SN12C, 21.5 µM (inactive); with NCI-H460, 37.6 µM (inactive); in the test on TK-10, 34.4 µM (inactive); with NCI-H23, 26.4 µM (inactive). In addition, the GI50 with OVCAR-4 was 35.4 µM (inactive); in the test with MCF7, 45.2 µM (inactive); with BT-549, 26.3 µM (inactive); in the test with OVCAR-5, 58.9 µM (inactive); in the test with HL-60, 28.4 µM (inactive); in the test with HCC 2998, 35.7 µM (inactive). For the same compound, the GI50 in the test with MOLT-4 is 20.1 µM (inactive); in the test with 786-0 it was 31 µM (inactive).

For the compound `CCOC(=O)NC(Nc1ccc(F)cc1)(C(=O)OCC)C(F)(F)F` (stereo not given), the GI50 is > 100 µM (inactive) with NCI-H522; > 100 µM (inactive) with Malme-3M; 3.28 µM (inactive) with CCRF-CEM; 12 µM (inactive) in the test on NCI/ADR-RES; > 100 µM (inactive) in the test with SF-539; > 100 µM (inactive) in the test with A498. In addition, the GI50 is 3.72 µM (inactive) with T47D; > 100 µM (inactive) in the test on SNB-75; > 100 µM (inactive) in the test with SN12C; > 21.7 µM (inactive) with NCI-H460; > 24.7 µM (inactive) with TK-10; > 100 µM (inactive) with NCI-H23. In addition, the GI50 was > 50.8 µM (inactive) with OVCAR-4; > 66.7 µM (inactive) with MCF7; > 100 µM (inactive) in the test on BT-549; > 100 µM (inactive) in the test on OVCAR-5; 0.526 µM (active) in the test on HL-60; > 100 µM (inactive) in the test with HCC 2998. Also, the results for the GI50 in the test on MOLT-4 and with 786-0 were 6.71 µM (inactive) and > 100 µM (inactive), respectively.

Regarding `O=C(N/N=C\c1ccc([N+](=O)[O-])cc1)Nc1cccc2ccccc12`, the GI50 with NCI-H522 was 20.4 µM (inactive); with Malme-3M, 27.7 µM (inactive); in the test with CCRF-CEM it was > 100 µM (inactive); in the test on NCI/ADR-RES, 19.1 µM (inactive); in the test on SF-539 it was 10.7 µM (inactive); with A498, 14 µM (inactive). Moreover, the GI50 in the test on T47D is > 23.1 µM (inactive); with SNB-75, 3.23 µM (inactive); in the test on SN12C, 48.9 µM (inactive); with NCI-H460, > 37.3 µM (inactive); in the test with TK-10, 14.5 µM (inactive); in the test on NCI-H23, 18.8 µM (inactive). Moreover, the GI50 was > 25.9 µM (inactive) in the test on OVCAR-4; > 43.7 µM (inactive) in the test with MCF7; 4.25 µM (inactive) in the test on BT-549; > 100 µM (inactive) in the test on OVCAR-5; > 31.6 µM (inactive) in the test on HL-60; 24.1 µM (inactive) in the test on HCC 2998. The results for the GI50 in the test on MOLT-4 and with 786-0 were > 100 µM (inactive) and 7.1 µM (inactive), respectively.

As for `CNn1c(-c2ccccc2)n[nH]c1=O`, the GI50 with NCI-H522, in the test with Malme-3M, in the test on CCRF-CEM, with NCI/ADR-RES, with SF-539 and in the test on A498 was > 100 µM (inactive) in each case. Besides, the GI50 in the test on T47D, with SNB-75, in the test with SN12C, in the test with NCI-H460, with TK-10 and in the test with NCI-H23 was > 100 µM (inactive) throughout. The GI50 with OVCAR-4, in the test with MCF7, in the test with BT-549, in the test on OVCAR-5, in the test with HL-60 and in the test with HCC 2998 was > 100 µM (inactive) throughout. For the same compound, the GI50 in the test on MOLT-4 and in the test on 786-0 was > 100 µM (inactive) throughout.

With `C=CC(c1ccccc1)[C@@]1(OC(C)=O)C(=O)C(=O)OC1C1COC(C)(C)O1` (stereo not given in full), the GI50 in the test with NCI-H522 is 3.77 µM (inactive); in the test on Malme-3M, 15.2 µM (inactive); with CCRF-CEM, 2.84 µM (inactive); in the test on NCI/ADR-RES, 15.5 µM (inactive); in the test on SF-539 it was 10.4 µM (inactive); in the test with A498 it was 19.7 µM (inactive). In addition, the GI50 is 13.2 µM (inactive) with T47D; 14.5 µM (inactive) in the test on SNB-75; 7.66 µM (inactive) in the test on SN12C; 14.5 µM (inactive) in the test with NCI-H460; 14.1 µM (inactive) in the test on TK-10; 18.2 µM (inactive) in the test on NCI-H23. Also, the GI50 in the test on OVCAR-4 is 14.9 µM (inactive); in the test with MCF7 it was 5.68 µM (inactive); in the test with BT-549 it was 12 µM (inactive); in the test on OVCAR-5 it was 18.5 µM (inactive); in the test with HL-60, 2.11 µM (inactive); in the test with HCC 2998, 17.2 µM (inactive). Also, the figures for the GI50 in the test on MOLT-4 and with 786-0 were 3.7 µM (inactive) and 10.4 µM (inactive), respectively.

Turning to `COC(=O)CNC(=O)CCC(C)[C@H]1CCC2C3C(C[C@H](OC(C)=O)[C@@]21C)[C@@]1(C)CCC2(C[C@H]1C[C@H]3OC(C)=O)OOC1(CC[C@]3(C)C4C[C@H](OC(C)=O)[C@@]5(C)C(CC[C@@H]5C(C)CCC(=O)NCC(=O)OC)C4[C@H](OC(C)=O)C[C@@H]3C1)OO2` (stereo not given in full), the GI50 was 0.991 µM (active) in the test with NCI-H522; 0.782 µM (active) in the test on Malme-3M; 0.244 µM (active) in the test with CCRF-CEM; 8.75 µM (inactive) with NCI/ADR-RES; 0.959 µM (active) with SF-539; 12 µM (inactive) in the test on A498. The GI50 was 2.6 µM (inactive) in the test with T47D; 1.64 µM (inactive) in the test on SNB-75; 0.802 µM (active) with SN12C; 2.07 µM (inactive) in the test on NCI-H460; 1.19 µM (inactive) with TK-10; 1.03 µM (active) with NCI-H23. The GI50 in the test on OVCAR-4 was 4.9 µM (inactive); in the test on MCF7 it was 2.71 µM (inactive); in the test on BT-549, > 50 µM (inactive); in the test with OVCAR-5 it was 2.03 µM (inactive); with HL-60, 1.11 µM (active); in the test with HCC 2998, 0.944 µM (active). In addition, the GI50 is 0.163 µM (active) with MOLT-4 and 0.76 µM (active) in the test on 786-0.
